Measured values: patent US20060045953A1 (priority 2004, published 2006)

Target: T1, hT1R2/hT1R3 sweet receptor (Homo sapiens, UniProt Q7RTX0+Q8TE23)
T1 construct: expressed in transfected cells; host or cells: HEK293 derivative stably expressing Gα15, clone S-9
T1 sequence (Q8TE23 20-839): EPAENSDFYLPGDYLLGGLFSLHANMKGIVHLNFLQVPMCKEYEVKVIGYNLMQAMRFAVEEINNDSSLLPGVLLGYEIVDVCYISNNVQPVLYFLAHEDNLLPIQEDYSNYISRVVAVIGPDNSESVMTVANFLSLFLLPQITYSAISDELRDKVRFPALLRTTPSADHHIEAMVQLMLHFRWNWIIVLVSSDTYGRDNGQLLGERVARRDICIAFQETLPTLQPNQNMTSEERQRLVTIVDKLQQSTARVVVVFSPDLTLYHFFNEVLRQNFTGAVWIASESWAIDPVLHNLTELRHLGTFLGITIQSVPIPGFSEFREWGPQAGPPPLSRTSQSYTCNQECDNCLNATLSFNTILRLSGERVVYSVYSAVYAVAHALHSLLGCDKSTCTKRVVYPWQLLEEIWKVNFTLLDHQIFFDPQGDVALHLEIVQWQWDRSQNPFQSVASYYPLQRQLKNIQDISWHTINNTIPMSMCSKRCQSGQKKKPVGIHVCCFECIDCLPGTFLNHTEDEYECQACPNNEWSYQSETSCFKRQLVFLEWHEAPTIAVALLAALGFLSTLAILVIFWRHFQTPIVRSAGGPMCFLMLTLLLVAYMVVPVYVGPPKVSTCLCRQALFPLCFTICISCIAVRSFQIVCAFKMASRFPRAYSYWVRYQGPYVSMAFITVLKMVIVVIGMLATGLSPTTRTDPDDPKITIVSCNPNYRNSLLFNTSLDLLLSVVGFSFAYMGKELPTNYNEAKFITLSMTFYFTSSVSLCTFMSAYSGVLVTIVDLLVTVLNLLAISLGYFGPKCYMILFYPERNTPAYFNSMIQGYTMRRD
T1 sequence (Q7RTX0 21-852): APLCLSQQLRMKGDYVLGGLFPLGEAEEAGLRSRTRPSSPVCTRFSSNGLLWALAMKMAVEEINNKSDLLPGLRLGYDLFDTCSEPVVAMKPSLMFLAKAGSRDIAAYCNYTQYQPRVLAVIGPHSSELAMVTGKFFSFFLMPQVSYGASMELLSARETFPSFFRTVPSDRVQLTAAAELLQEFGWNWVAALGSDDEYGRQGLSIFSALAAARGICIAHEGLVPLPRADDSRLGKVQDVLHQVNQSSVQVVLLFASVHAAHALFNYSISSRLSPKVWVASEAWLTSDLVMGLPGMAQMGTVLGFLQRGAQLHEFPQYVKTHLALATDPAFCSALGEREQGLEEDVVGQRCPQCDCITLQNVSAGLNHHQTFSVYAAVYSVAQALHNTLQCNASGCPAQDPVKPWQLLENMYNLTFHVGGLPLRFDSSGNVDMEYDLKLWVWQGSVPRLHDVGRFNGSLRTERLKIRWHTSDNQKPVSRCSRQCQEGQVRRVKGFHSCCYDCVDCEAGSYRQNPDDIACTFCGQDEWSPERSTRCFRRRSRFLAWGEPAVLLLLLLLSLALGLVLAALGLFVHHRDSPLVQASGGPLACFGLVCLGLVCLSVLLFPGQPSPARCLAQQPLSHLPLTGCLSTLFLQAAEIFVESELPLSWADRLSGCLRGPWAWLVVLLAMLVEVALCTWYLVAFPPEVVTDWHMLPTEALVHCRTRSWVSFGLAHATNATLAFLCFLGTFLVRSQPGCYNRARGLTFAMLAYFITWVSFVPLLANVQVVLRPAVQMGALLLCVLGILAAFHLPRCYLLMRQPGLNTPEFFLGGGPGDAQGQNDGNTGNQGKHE
Assay: In vitro hT1R2/hT1R3 sweet taste receptor activation assay (FLIPR, dose response)
Format: cell-based
Conditions: Table E, Sweet Enhancer Amides; read-out: Sweet EC50
Summary of the method: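 S-9 cells expressing hT1R2/hT1R3, loaded with 4 µM Fluo-3AM 1 h at room temperature. Calcium response on FLIPR at room temperature in D-PBS, with 10 concentrations from 60 nM to 30 µM in duplicate.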

Cc1c(F)c(F)c(C(=O)NC(C)CCC(C)C)c(F)c1F (stereo not drawn) [Example E70, 2,3,5,6-tetrafluoro-4-methyl-N-(5-methylhexan-2-yl)benzamide] and CC1CCCC(NC(=O)Cc2c(F)c(F)c(F)c(F)c2F)C1C (stereo not drawn) [Example E74, N-(2,3-dimethylcyclohexyl)-2-(perfluorophenyl)acetamide] are within 1.5-fold of each other in EC50: 3.2 µM for the first, 3.62 µM for the second.

CC1CCCCC1NC(=O)c1ccc2nonc2c1 (stereo not drawn) [Example E71] and CC1CCCCC1NC(=O)c1ccc(F)c(F)c1 (stereo not drawn) [Example E81] are within 1.5-fold of each other in EC50: 3.33 µM for the first, 4.37 µM for the second.

COc1cccc(C(=O)NC2CCC(C)CC2)c1O (stereo not drawn) [Example E72, 2-hydroxy-3-methoxy-N-(4-methylcyclohexyl)benzamide] and Cc1c(Cl)cccc1C(=O)NC1CCCCC1C (stereo not drawn) [Example E80, 3-chloro-2-methyl-N-(2-methylcyclohexyl)benzamide] are within 1.5-fold of each other in EC50: 3.35 µM for the first, 4.29 µM for the second.

CC12CCC(C1)C(C)(C)C2NC(=O)c1cccs1 (stereo not drawn) [Example E73, Thiophene-2-carboxylic acid (1,3,3-trimethyl-bicyclo[2.2.1]hept-2-yl)-amide] and CC1CCCC(NC(=O)c2cccc(Cl)c2Cl)C1C (stereo not drawn) [Example E76, 2,3-dichloro-N-(2,3-dimethylcyclohexyl)benzamide] are within 1.5-fold of each other in EC50: 3.36 µM for the first, 3.99 µM for the second.

CCC(CC)NC(=O)c1cccc(Cl)c1Cl [Example E75, 2,3-dichloro-N-(pentan-3-yl)benzamide] and N#Cc1ccc(NC(=O)c2c(Cl)cccc2Cl)cc1 [Example E91, 2,6-Dichloro-N-(4-cyano-phenyl)-benzamide] are within 1.5-fold of each other in EC50: 3.78 µM for the first, 2.74 µM for the second.

CC1CCCC(NC(=O)c2cc(F)ccc2F)C1C (stereo not drawn) [Example E77, N-(2,3-dimethylcyclohexyl)-2,5-difluorobenzamide] and Cc1cc(C)cc(C(=O)NC2CCCCC2C)c1 (stereo not drawn) [Example E82, 3,5-dimethyl-N-(2-methylcyclohexyl)benzamide] are within 1.5-fold of each other in EC50: 4.11 µM for the first, 4.48 µM for the second.

First: CC(C)C(NC(=O)c1c(O)cccc1O)C(C)C [Example E79, N-(2,4-dimethylpentan-3-yl)-2,6-dihydroxybenzamide]
Second: O=C(Nc1ccc(F)cc1F)c1cc(Cl)ccc1O [Example E89, 5-Chloro-N-(2,4-difluoro-phenyl)-2-hydroxy-benzamide]
The EC50 of the first is 1.7-fold higher: 4.28 µM for the first, 2.56 µM for the second. The second is the more potent here.

CCOc1ccc(CCNC(=O)c2ccnn2C)cc1 [Example E83, N-(4-ethoxyphenethyl)-1-methyl-i H-pyrazole-5-carboxamide] and COc1ccc(NC(=O)c2cc(Cl)c(OC)c(Cl)c2)cc1 [Example E93, 3,5-dicbloro-4-methoxy-N-(4-methoxyphenyl)benzamide] are within 1.5-fold of each other in EC50: 4.68 µM for the first, 3.24 µM for the second.

Compared with COc1c(Cl)ccc(Cl)c1C(=O)Nc1ccccc1F [Example E84, 3,6-dichloro-N-(2-fluorophenyl)-2-methoxybenzamide], COc1c(Cl)cc(C(=O)Nc2ccccc2C)cc1Cl [Example E88, 3,5-dichloro-4-methoxy-N-o-tolylbenzamide] is 2.2-fold higher in EC50: 0.83 µM for the first, 1.84 µM for the second.

Compared with COc1cc(Cl)c(NC(=O)c2cccc(C(F)(F)F)c2)c(OC)c1 [Example E85, N-(2-Chloro-4,6-dimethoxy-phenyl)-3-trifluoromethyl-benzamide], COc1ccc(NC(=O)c2ccc(F)c(Cl)c2)c(OC)c1 [Example E94, 3-chloro-N-(2,4-dimethoxyphenyl)-4-fluorobenzamide] is 2.5-fold higher in EC50: 1.42 µM for the first, 3.56 µM for the second.

First: COc1c(Cl)cc(C(=O)Nc2ccc(C)cc2C)cc1Cl [Example E86, 3,5-dichloro-N-(2,4-dimethylphenyl)-4-methoxybenzamide]
Second: Cc1ccc(NC(=O)c2ccc(Cl)c(C)c2)c(C)c1 [Example E92, 4-chloro-N-(2,4-dimethylphenyl)-3-methylbenzamide]
The EC50 of the first is 1.9-fold lower: 1.48 µM for the first, 2.74 µM for the second.

Going from O=C(Nc1nnc(C(F)(F)F)s1)c1ccc(F)c(Cl)c1 [Example E87, 3-Chloro-4-fluoro-N-(5-trifluoromethyl-[1,3,4]thiadiazol-2-yl)-benzamide] to N#Cc1c(F)cccc1NC(=O)c1ccc(Cl)cc1Cl [Example E90, 2,4-Dichloro-N-(2-cyano-3-fluoro-phenyl)-benzamide], the EC50 rises from 1.55 µM to 2.71 µM (1.7-fold).
